Results: US6497899B2, “Rapidly disintegrating and fast-dissolving solid dosage form” (Pfizer, Inc., priority 2000, dated 2002)

Experiment: Dissolution testing of medicated tablets, USP/NF method 711, apparatus 2 at 50 RPM, UV absorption
Assay type: physicochemical
Settings: medicated steam extruded starch solid dosage form, apparatus 2, 50 RPM
Description: Dosage form dissolution is measured by the United States Pharmacopeia/National Formulary (USP/NF) method 711 (United States Pharmacopeia, Rockville, Md., USA) and is summarized below:
The assembly from Apparatus 1 is used except that a paddle formed from a blade and a shaft is used as the stirring element. The shaft is positioned so that its axis is not more than 2 mm at any point from the vertical axis of the vessel and rotates smoothly without significant wobble. The vertical center line of the blade passes through the axis of the shaft so that the bottom of the blade is flush with the bottom of the shaft. The distance of 25±2 mm between the blade and the inside bottom of the vessel is maintained during the test. The metallic or suitably inert, rigid blade and shaft comprise a single entity that may be coated with a suitable inert coating. The dosage unit is allowed to sink to the bottom of the vessel before rotation of the blade is started. A small, loose piece of nonreactive material such as not more than a few turns of wire helix may be attached to dosage units that would otherwise float. Other validated sinker devices may be used. […]
The stated volume of the dissolution medium (±1%) is placed in the vessel of the apparatus. The dissolution medium is equilibrated to 37±0.5°C., and the thermometer removed. One solid dosage form is placed in the apparatus, taking care to exclude air bubbles from the surface of the dosage-form unit and either apparatus is immediately operated at a rate of 50 rpm. The concentration of dissolved drug in dissolution medium is measured over time by ultraviolet spectrophotometer to calculate the dissolution rate.
The medicated tablets were dissolved according to USP/NF method 711 using apparatus 2 at 50 RPM. Levels of medicament released were determined by UV absorption.

[1] = dissolution media Simulated Intestinal Fluid without enzyme
[2] = dissolution media deionized H2O, 37 C

Structure (SMILES) | 1 minute release [1] [%] | 5 minute release [1] [%] | 10 minute release [1] [%] | 60 minute release [1] [%] | 1 minute release [2] [%] | 5 minute release [2] [%] | 60 minute release [2] [%]
CC(C(=O)O)c1ccc2c(c1)[nH]c1ccc(Cl)cc12 (stereo not shown) [Carprofen] | 33.4 | 69.6 | 82.8 | 101.4 |  |  | 
Cl.Cl.O=C(O)COCCN1CCN(C(c2ccccc2)c2ccc(Cl)cc2)CC1 (stereo not shown) [Cetirizine.HCl] |  |  |  |  | 65.5 | 82.7 | 100.1
OC(Cn1cncn1)(Cn1cncn1)c1ccc(F)cc1F [Diflucan, Fluconazole] |  |  |  |  | 60.3 | 76.7 | 97.6
